The source of these data is US9440930B2, “Substituted bicyclic dihydropyrimidinones and their use as inhibitors of neutrophil elastase activity” (Boehringer Ingelheim International GmbH, priority 2014, dated 2016).

Where only a bound is given, the exact number is not on record here.

For data set [1], the target named is T1, Human neutrophil elastase (Homo sapiens, UniProt P08246).
T1 construct: purchased Calbiochem 324681
T1 sequence (P08246 30-247 limits assumed): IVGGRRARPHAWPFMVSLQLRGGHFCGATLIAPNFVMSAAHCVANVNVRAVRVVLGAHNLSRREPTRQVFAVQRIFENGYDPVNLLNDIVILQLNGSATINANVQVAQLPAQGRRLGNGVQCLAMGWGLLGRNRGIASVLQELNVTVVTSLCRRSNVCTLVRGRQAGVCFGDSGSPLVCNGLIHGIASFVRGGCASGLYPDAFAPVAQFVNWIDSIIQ
Kind of data set: Human Neutrophil Elastase Assay. The format is biochemical. Particulars: substrate MeOSuc-Ala-Ala-Pro-Val-AMC 250 μM, pH 7.5, room temperature. From the text: Human Neutrophil Elastase Assay

The target of data set [2] is T2, neutrophil elastase in human plasma (Homo sapiens, UniProt P08246).
T2 construct: The stimulated blood is centrifuged to generate the neutrophil elastase enriched plasma; from tissue; host or cells: plasma from zymosan-stimulated citrated whole blood of healthy human donors
T2 sequence (P08246 30-267): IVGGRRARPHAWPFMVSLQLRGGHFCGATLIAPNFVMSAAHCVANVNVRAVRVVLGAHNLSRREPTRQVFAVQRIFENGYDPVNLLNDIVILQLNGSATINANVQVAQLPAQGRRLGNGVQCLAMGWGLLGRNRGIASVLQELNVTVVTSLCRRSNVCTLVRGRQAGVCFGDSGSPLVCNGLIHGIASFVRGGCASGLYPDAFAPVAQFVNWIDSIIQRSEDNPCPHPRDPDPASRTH
The experiment in a line: Neutrophil elastase inhibitory activity in human plasma. Format: biochemical. Particulars: zymosan-stimulated human plasma, substrate MeOSuc-Ala-Ala-Pro-Val-AMC 250 μM. How it is done: Assay for the Determination of Neutrophil Elastase Inhibitory Activity in Human Plasma
Citrated blood from human healthy donors is mixed with zymosan suspension and incubated at room temperature. This leads to the stimulation of neutrophils and the release of neutrophil elastase into the plasma. The stimulated blood is centrifuged to generate the neutrophil elastase enriched plasma.
• A single 45 ml blood sample is taken into a 50 ml tube containing citrate (3.13%, 5 mL) and the tube is gently inverted 4 times. • Immediately after blood sampling, zymosan working solution (5 mL) is added. • After the addition of zymosan working solution, the tubes are capped, mixed gently and incubated at 22° C. for 15 min on a shaker at 20 rpm. • Make 10 ml aliquots after the incubation time. • Centrifuge the 15 ml tubes at 800 g for 15 min at 4° C. in a Jouan centrifuge. • Harvest the plasma and make 1-5 ml aliquots. • Store the plasma at −80° C.
A dose response curve is generated to calculate the EC50 of the inhibitor. The analysis of the data is performed by the calculation of the percentage of fluorescence in the presence of the test compound compared to the fluorescence of the vehicle control after subtracting the background fluorescence: An inhibitor of the neutrophil elastase enzyme will give values between 100% control (no inhibition) and 0% control (complete inhibition).

The nature of data set [3]: Metabolic stability with human liver microsomes. Format: in vitro ADME. Particulars: pooled human liver microsomes, pH 7.6; human liver microsomes 1 mg/ml, 1 μM compound, 37° C., NADPH; read-out: t1/2 INVITRO. (Liver microsomes are a subcellular fraction often used to study metabolism.)
Data set [4] is described as follows: Drug transport across human Caco-2 cells. Conditions: pH 7.2, 37° C.; for Papp A→B at 10 µM: apical-to-basal, read-out: PEAB; for Papp B→A at 10 µM: basal-to-apical, read-out: PEBA. Format: in vitro ADME. From the text: Assay for Determination of Drug Transport Across Human Caco-2 Cells
The assay provides information on the potential of a compound to pass the cell membrane, on the extent of oral absorption as well as on whether the compound is actively transported by uptake and/or efflux transporters. For the measurement of permeability across polarized, confluent human cancer colon carcinoma cells 2 (Caco-2) cell monolayers grown on permeable filter supports are used as the in vitro absorption model.
Apparent permeability coefficients (PE) of the compounds across the Caco-2 monolayers are measured (pH 7.2, 37° C.) in apical-to-basal (AB) (absorptive) and basal-to-apical (BA) (secretory) transport direction. AB permeability (PEAB) represents drug absorption from the intestine into the blood and BA permeability (PEBA) drug secretion from the blood back into the intestine via both passive permeability as well as active transport mechanisms mediated by efflux and uptake transporters that are expressed on the Caco-2 cells. The compounds are assigned to permeability/absorption classes by comparison of the AB permeabilities with the AB permeabilities of reference compounds with known in vitro permeability and oral absorption in the human. Identical or similar permeabilities in both transport directions indicate passive permeation, vectorial permeability points to additional active transport mechanisms. […] Active transport is concentration-dependently saturable.
Caco-2 cells (1-2*10^5 cells/cm^2 area) are seeded on filter inserts (Costar transwell polycarbonate or PET filters, 0.4 μm pore size) and cultured (DMEM) for 10 to 25 days. Compounds are dissolved in appropriate solvent (like DMSO, 1-20 min stock solutions). Stock solutions are diluted with HTP-4 buffer (128.13 min NaCl, 5.36 min KCl, 1 mM MgSO4, 1.8 min CaCl2, 4.17 min NaHCO3, 1.19 min Na2HPO4×7H2O, 0.41 mM NaH2PO4×H2O, 15 min HEPES, 20 min glucose, pH 7.2) to prepare the transport solutions (typically 10 μM compound, final DMSO<=0.5%). The transport solution (TL) is applied to the apical or basolateral donor side for measuring A-B or B-A permeability (3 filter replicates), respectively. The receiver side contains HTP-4 buffer supplemented with 2% BSA. Samples are collected at the start and end of experiment from the donor and at various time intervals for up to 2 hours also from the receiver side for concentration measurement by LC-MS/MS or scintillation counting. Sampled receiver volumes are replaced with fresh receiver solution.

For orientation: IC50 means the concentration needed to halve the response being measured. Low values mean inhibition by little substance, high ones a need for much substance. With `CNC(=O)N1C(=O)N(c2cccc(C(F)(F)F)c2)C2=C(C(=O)CCC2)C1c1ccc(C#N)cc1[S+](C)[O-]` (single isomer, unassigned) [Example 3.1, 4-(4-Cyano-2-methanesulfinyl-phenyl)-2,5-dioxo-1-(3-trifluoromethyl-phenyl)-1,4,5,6,7,8-hexahydro-2H-quinazoline-3-carboxylic acid methylamide], the IC50 in data set [1] was < 1 nM.

As to `C[S+]([O-])c1cc(C#N)ccc1C1NC(=O)N(c2cccc(C(F)(F)F)c2)C2=C1C(=O)CCC2` (single isomer, unassigned) [Example 1.1, 4-[2,5-Dioxo-1-(3-trifluoromethyl-phenyl)-1,2,3,4,5,6,7,8-octahydro-quinazolin-4-yl]-3-methanesulfinyl-benzonitrile], the IC50 in data set [1] stood at 2 nM. By EC50 is commonly meant the concentration giving half of the maximal effect. The low end stands for greater potency, the high end for weaker potency. As to `CN1C(=O)N(c2cccc(C(F)(F)F)c2)C2=C(C(=O)CCC2)C1c1ccc(C#N)cc1S(=O)(=O)CCCO` (stereo not shown) [Example 4.4], the IC50 in data set [1] was < 1 nM. This compound also gave an EC50 in data set [2] of 2 nM. Moreover, in data set [3], the half-life at 1 μM turned out to be 1.67 h. In addition, in data set [4], the Papp A→B at 10 µM amounted to 8.4 ×10⁻⁶ cm/s and the Papp B→A at 10 µM was found to be 110 ×10⁻⁶ cm/s. With `C[S+]([O-])c1cc(C#N)ccc1C1NC(=O)N(c2cccc(C(F)(F)F)c2)C2=C1C(=O)CCC2` (single isomer, unassigned) [Example 1.2, 4-[2,5-Dioxo-1-(3-trifluoromethyl-phenyl)-1,2,3,4,5,6,7,8-octahydro-quinazolin-4-yl]-3-methanesulfinyl-benzonitrile], the IC50 in data set [1] was 4.2 nM. For the compound `CS(=O)(=O)c1cc(C#N)ccc1C1C2=C(CCCC2=O)N(c2cccc(C(F)(F)F)c2)C(=O)N1CC1COC1` (single isomer, unassigned) [Example 5A, 3-Methanesulfonyl-4-[3-oxetan-3-ylmethyl-2,5-dioxo-1-(3-trifluoromethyl-phenyl)-1,2,3,4,5,6,7,8-octahydro-quinazolin-4-yl]-benzonitrile], in data set [1], the half-inhibitory concentration (IC50) worked out at 1 nM. The EC50 in data set [2] worked out at 1 nM. The half-life at 1 μM in data set [3] turned out to be 1.23 h. In addition, in data set [4], the Papp A→B at 10 µM came out at 12 ×10⁻⁶ cm/s and the Papp B→A at 10 µM was 89 ×10⁻⁶ cm/s. `C[S+]([O-])c1cc(C#N)ccc1C1NC(=O)N(c2cccc(C(F)(F)F)c2)C2=C1C(=O)CCC2` (single isomer, unassigned) [Example 1.1A, 4-[2,5-Dioxo-1-(3-trifluoromethyl-phenyl)-1,2,3,4,5,6,7,8-octahydro-quinazolin-4-yl]-3-methanesulfinyl-benzonitrile]: in data set [1], the IC50 was < 1 nM. The same measure, in the same setting: the value for `CN1C(=O)N(c2cccc(C(F)(F)F)c2)C2=C(C(=O)CCC2)C1c1ccc(C#N)cc1[S+](C)[O-]` (single isomer, unassigned) [Example 2.1, 3-Methanesulfinyl-4-[3-methyl-2,5-dioxo-1-(3-trifluoromethyl-phenyl)-1,2,3,4,5,6,7,8-octahydro-quinazolin-4-yl]-benzonitrile] was < 1 nM.

In turn, `CN1C(=O)N(c2cccc(C(F)(F)F)c2)C2=C(C(=O)CCC2)C1c1ccc(C#N)cc1[S+](C)[O-]` (single isomer, unassigned) [Example 2.1B, 3-Methanesulfinyl-4-[3-methyl-2,5-dioxo-1-(3-trifluoromethyl-phenyl)-1,2,3,4,5,6,7,8-octahydro-quinazolin-4-yl]-benzonitrile] had an IC50 in data set [1] of 134 nM. Still for that read-out and setting: the result for `CN1C(=O)N(c2cccc(C(F)(F)F)c2)C2=C(C(=O)CCC2)C1c1ccc(C#N)cc1CO` (stereo not shown) [Example 7, 3-Hydroxymethyl-4-[3-methyl-2,5-dioxo-1-(3-trifluoromethyl-phenyl)-1,2,3,4,5,6,7,8-octahydro-quinazolin-4-yl]-benzonitrile] reads 1 nM; that for `COCCS(=O)(=O)c1cc(C#N)ccc1C1NC(=O)N(c2cccc(C(F)(F)F)c2)C2=C1C(=O)CCC2` (stereo not shown) [Example 4.2], 11 nM. Still for that read-out and setting: the result for `C[S+]([O-])c1cc(C#N)ccc1C1NC(=O)N(c2cccc(C(F)(F)F)c2)C2=C1C(=O)CCC2` (single isomer, unassigned) [Example 1.1B, 4-[2,5-Dioxo-1-(3-trifluoromethyl-phenyl)-1,2,3,4,5,6,7,8-octahydro-quinazolin-4-yl]-3-methanesulfinyl-benzonitrile] reads 7.4 nM. Same read-out and setting: the result for `N#Cc1ccc(C2NC(=O)N(c3cccc(C(F)(F)F)c3)C3=C2C(=O)CCC3)c(S(=O)(=O)CCO)c1` (stereo not shown) [Example 4, 4-[2,5-Dioxo-1-(3-trifluoromethyl-phenyl)-1,2,3,4,5,6,7,8-octahydro-quinazolin-4-yl]-3-(3-hydroxy-ethane-1-sulfonyl)-benzonitrile] reads 7 nM; that for `N#Cc1ccc(C2NC(=O)N(c3cccc(C(F)(F)F)c3)C3=C2C(=O)CCC3)c(S(=O)(=O)CCCO)c1` (stereo not shown) [Example 4.1], 5.6 nM; that for `CNC(=O)N1C(=O)N(c2cccc(C(F)(F)F)c2)C2=C(C(=O)CCC2)C1c1ccc(C#N)cc1[S+](C)[O-]` (single isomer, unassigned) [Example 3.2, 4-(4-Cyano-2-methanesulfinyl-phenyl)-2,5-dioxo-1-(3-trifluoromethyl-phenyl)-1,4,5,6,7,8-hexahydro-2H-quinazoline-3-carboxylic acid methylamide], < 1 nM. As to `CN1C(=O)N(c2cccc(C(F)(F)F)c2)C2=C(C(=O)CCC2)C1c1ccc(C#N)cc1[S+](C)[O-]` (single isomer, unassigned) [Example 2.2, 3-Methanesulfinyl-4-[3-methyl-2,5-dioxo-1-(3-trifluoromethyl-phenyl)-1,2,3,4,5,6,7,8-octahydro-quinazolin-4-yl]-benzonitrile], in data set [1], inhibition was half-maximal at 1.2 nM (IC50).

The compound `CS(=O)(=O)c1cc(C#N)ccc1C1C2=C(CCCC2=O)N(c2cccc(C(F)(F)F)c2)C(=O)N1CC1COC1` (single isomer, unassigned) [Example 5B, 3-Methanesulfonyl-4-[3-oxetan-3-ylmethyl-2,5-dioxo-1-(3-trifluoromethyl-phenyl)-1,2,3,4,5,6,7,8-octahydro-quinazolin-4-yl]-benzonitrile] registered an IC50 in data set [1] of 157 nM. Still for that read-out and setting: the result for `CN1C(=O)N(c2cccc(C(F)(F)F)c2)C2=C(C(=O)CCC2)C1c1ccc(C#N)cc1[S+](C)[O-]` (single isomer, unassigned) [Example 2.2B, 3-Methanesulfinyl-4-[3-methyl-2,5-dioxo-1-(3-trifluoromethyl-phenyl)-1,2,3,4,5,6,7,8-octahydro-quinazolin-4-yl]-benzonitrile] reads 100 nM.
